≈ marks a conversion by molar mass, not a printed value. Where two headings read alike, the source gives them in different places.
Legend:
[1] = test system: HCT116 cells; experiment: Cell viability assay (CellTiter-Glo); assay type: cell-based; details: Homo sapiens, HCT-116, 72 h; read-out: IC50 ± S.D. HCT116
Description: (§1) Therefore, we assessed the impact of the BET-degrading FerroTAC AS6 on the viability of BET-sensitive HCT116 cells and HEK293 cells (Figure 6A). […]
(§2) room temperature and protected from light. Thereafter, the membranes were washed with TBS-T three times for 10 min, and protein bands were acquired using a ChemiDoc MP imaging system (Bio-Rad). Band quantification was performed using Image Lab software and reported as ratio of each protein band relative to […]
(§3) Peak elution was monitored using ultraviolet absorbance at 280 nm.

[2] = test system: HEK293 cells; experiment: Cell viability assay (CellTiter-Glo); assay type: cell-based; details: 72 h
Description: as §1, §2, §3

[3] = ChromLogD (chromatographic); assay type: physicochemical; details: HPLC on Hypersil GOLD-C18 column, pH 7.4
Description: (§4) For the permeabilised-cell assay, 10 µL of digitonin was added, and plates were incubated in darkness for 5 minutes to allow permeabilisation. In each well 10 µL of the 10x PROTAC and vehicle control dilutions were dispensed. A 100x NanoBRET tracer solution (50 µM for VHL permeabilised-cell assay) was prepared with 100% DMSO, then diluted to a 20x solution with tracer dilution buffer. A 5 µL volume of tracer was dispensed into each well at a final concentration of 0.5 µM, and the plate was mixed at 300 RPM for 15 seconds. Finally, 50 µL of a 3x substrate solution (8.8 µL NanoBRET Nano-Glo substrate and 3,500 µL Opti-MEM) was added, and plates were incubated for 1 minute at room temperature before reading on a GloMax Discover as […]
HiBiT Lytic Assay with Zosuquidar Co-treatment
A modified HiBiT lytic assay was used to assess the activity of zosuquidar on the BET degradation. […]
(§5) Luminescence was measured using the GloMax® Multiplex Luminescence and Fluorescence Protocol for 96-well plates. The luminescence signal for each well was normalised to the fluorescence signal and further normalised to the mean values from iPrOH-treated controls, then expressed as a ratio relative to the vehicle control. Curve fitting and DC50 values were determined in GraphPad Prism v.10.0.3 using nonlinear regression with a three-parameter logistic model to calculate DC50 values.
The stock solution of each test item was prepared from a 10mM stock in iPrOH, which was further diluted 1:50 with […] to obtain a 0.2 mM solution (4 µL of the test item stock solution is diluted with 196 µL DMSO) in insert vials. The samples were analysed on an HPLC system equipped with a HPLC-ThermoScientific Hypersil GOLD-C18 column (2.1 x 50 mm, 1.9 µm) and by MS detection using electrospray ionization (ESI) and Atmospheric Pressure Chemical Ionization (APCI) on a Shimadzu LCMS 2050. […]
(§6) of 1 mL/min and a column temperature of 40 °C. […] Data were analysed with Shimadzu Open Solution Data Browser to obtain the RTs of the peak for each individual compound and standards. […]

[4] = LogD7.4 shake flask (octanol/phosphate buffer); assay type: physicochemical; details: octanol/potassium phosphate buffer, pH 7.4
Text: The modulation of lipophilicity could play a critical role in optimizing PROTACs. We thus utilized traditionally measured LogD values from shake flask experiments alongside chromatographically assessed ChromLogD values.[72] […] By incorporating ferrocene, permeability may be improved due to the feature of promoting IMHB-mediated compact conformations, while also balancing the lipophilicity of the polar ligand/PEG linkers. However, while sufficient lipophilicity is required for passive uptake over the cell membrane, it may also drive poor aqueous solubility.[73]
as §4
HiBiT Lytic Assay with Zosuquidar Co-treatment […]
as §5, with “values. […]” for “values.”
as §6
ChromLogD values for the compounds were then calculated based on the regression curve. […]

[5] = Kinetic solubility in phosphate buffer and FeSSIF; assay type: physicochemical; details: kinetic from iPrOH stock
Description: Solubility in Phosphate Buffer and Fed State Simulated Intestinal Fluid (FeSSIF) 8 µL of reference or test compound stock solution (10 mM in iPrOH) was added to 792 μL of 100 mM phosphate buffer (pH 7.4) or FeSSIF (pH 5.8). The resulting mixture was shaken for 1 h (1000 rpm) at room temperature and then centrifuged for 10 min (12 000 rpm) to remove the undissolved particles. The supernatant was collected and diluted 10 times and 100 times separately with 100 mM phosphate buffer or FeSSIF. Five microliters of the supernatant samples (no diluted, 10 times diluted, 100 times diluted) were mixed with 95 μL of acetonitrile (containing internal standard) separately before injecting into LC-MS/MS for analysis. […]

[6] = Plasma stability assay; assay type: in vitro ADME; details: mouse plasma; read-out: stability T1/2 in mouse plasma
Description: Frozen plasma was thawed at 37 °C and centrifuged at 3000 rpm for 8 min to remove clots, and the supernatant was used in the experiment. The pH of the plasma was recorded, and only the pH range between 7.4 and 8 was used. The plasma and compound solution were prewarmed to 37 °C. 10 µL of prewarmed testing compound or reference compound (procaine) solution (20 μM in 0.05 mM sodium phosphate buffer (pH 7.4) with 0.5% BSA) was mixed with 90 μL of plasma at different time points to allow for 5, 15, 30, 45, and 60 min of incubation time. For 0 min, the plasma was mixed with vehicle only. Acetonitrile was added to the compound and plasma mixture to quench the reaction, and the resulting mixture was centrifuged (5594g for 15 min). The

[7] = Mouse liver microsome stability; assay type: in vitro ADME; details: liver microsomes
Description: Mouse Liver Microsome Stability
Testing compound (1.5 μL) or reference compound (500 μM in 5% iPrOH and 95% acetonitrile) was mixed with 18.75 μL of 20 mg/mL liver microsome (Corning) and 479.75 μL of potassium phosphate buffer (0.1 M potassium phosphate buffer, 1 mM EDTA, pH 7.4). The reaction was started by mixing 30 μL of the above mixture (prewarmed to 37 °C) with 15 μL of 6 mM NADPH stock solution (prewarmed to 37 °C). After incubating for 5, 15, 30, or 45 min, 135 μL of acetonitrile containing internal standard was added to stop the reaction. For 0 min, the compound and microsome mixture were mixed with acetonitrile first before adding NADPH. After quenching, the reaction mixture was centrifuged, and the supernatant was taken and diluted for LC-MS

[8] = biological target: T1, pVHL30 (Homo sapiens, UniProt P40337); experiment: Western blot VHL degradation in HEK293 cells; assay type: cell-based; details: HEK293, 4 h, 1 μM
T1 construct: endogenous in cells; host or cells: HEK293 (ATCC)
T1 sequence (P40337 whole entry): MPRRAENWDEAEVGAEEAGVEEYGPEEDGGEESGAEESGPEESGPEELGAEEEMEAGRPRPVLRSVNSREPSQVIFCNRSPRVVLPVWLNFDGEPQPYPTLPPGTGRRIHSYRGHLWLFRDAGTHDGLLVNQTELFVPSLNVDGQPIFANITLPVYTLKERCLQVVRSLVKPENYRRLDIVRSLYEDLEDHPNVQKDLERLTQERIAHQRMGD
Description: To further elucidate the mode of action of FerroTAC AS2, we explored its dependency on ubiquitination and proteasome activity.
A) Representative immunoblots of VHL protein levels after treatment of
HEK293 cells. Cells were treated with 0.1% EtOH, 0.1 μM or 1 μM of the indicated compounds for 4 and 24 h.
Controls were included at 1 μM for 24 h. Mean values of two biologically independent experiments.
Representative time-course immunoblots of VHL protein levels after treatment of HEK293 cells treated with
Cells were treated with 0.1% EtOH and controls at 1 μM. Mean values of two biologically
independent experiments. Apparent half-life values (t 1/2) were estimated by fitting band intensity against time
using a single-phase exponential decay model. C) Representative immunoblots of VHL protein levels in
neddylation inhibitor MLN4924 (3 μM) and VHL inhibitor VH032 (50 μM). The amount of EtOH (0.1%) and
DMSO (0.5%) is fixed in all samples. Band quantification was performed using ImageJ software and reported
(in black and black) as relative amount as ratio of each protein band relative to the lane’s loading control
(tubulin). VHL/tubulin protein ratios were normalised to the average of the controls (100%).
HEK293 and HCT116 cell lines, purchased from ATCC, were cultured in Dulbecco’s modified Eagle’s medium (DMEM, Gibco) supplemented with 10% fetal bovine serum (FBS, Gibco), L-glutamine (2 mM, Gibco) and 100 μg/mL of penicillin/streptomycin (Gibco). All cell lines were maintained in a humidified incubator at 37 °C and 5% CO2 for no more than 30 passages. Cells were routinely tested for mycoplasma contamination.
Cell Treatment for Immunoblotting
depending on the experimental setup. Cells were treated in fresh medium with the indicated compounds under indicated conditions with a final EtOH or iPrOH concentration of 0.01% (v/v) to 0.1% (v/v) depending on the experimental setup. […]
stored at −80°C. Protein concentration was determined by bicinchoninic acid (BCA) assay (Thermo Fisher […]
Quantitative Immunoblotting […]

| SMILES | IC50 [1] | cytotoxicity in HEK293 cells (in words) [2] | chromatographic logD [3] | logD [4] | solubility kinetic at 1 h ([5]; FeSSIF pH 5.8, read-out: kinetic solubility FeSSIF (pH 5.8)) | solubility kinetic at 1 h ([5]; phosphate buffer, aqueous buffer, PBS pH 7.4, read-out: kinetic solubility PBS (pH 7.4)) | half-life at 2 µM [6] | CLint scaled at 1 µM ([7]; pH 7.4) | half-life at 1 µM ([7]; pH 7.4, read-out: stability T1/2 in mouse microsome) | pVHL30 degradation (in words) [8] |
| --- | --- | --- | --- | --- | --- | --- | --- | --- | --- | --- |
| Cc1ncsc1-c1ccc(CNC(=O)C2CC(O)CN2C(=O)C(NC(=O)COCCOCCOCCNC(=O)CC2N=C(c3ccc(Cl)cc3)c3c(sc(C)c3C)-n3c(C)nnc32)C(C)(C)C)cc1 (stereo not shown) [MZ1] | 1330 nM | almost no intrinsic cytotoxicity | 4.1 | 3.8 | 51.1 µM (≈ 51.2 µg/mL) | 22.4 µM (≈ 22.4 µg/mL) | 347 min | 2180 mL/min/kg | 2.5 min | – |
| Cc1ncsc1-c1ccc([C@H](C)NC(=O)[C@@H]2C[C@@H](O)CN2C(=O)[C@@H](NC(=O)COCCOCCOCCOCCOCCOCC(=O)N[C@H](C(=O)N2C[C@H](O)C[C@H]2C(=O)N[C@@H](C)c2ccc(-c3scnc3C)cc2)C(C)(C)C)C(C)(C)C)cc1 [MeCM11] | – | – | – | – | – | – | – | – | – | failed to induce significant degradation |

— publication PMC12022980, “Rational Design of PROTAC Linkers Featuring Ferrocene as a Molecular Hinge to Enable Dynamic Conformational Changes” (Journal of the American Chemical Society, 2025)
